Results as given in patent US20020035061A1, “COMPOSITIONS AND METHODS FOR TREATING INFECTIONS USING CATIONIC PEPTIDES ALONE OR IN COMBINATION WITH ANTIBIOTICS” (priority 1996, published 2002).
Where two headings read alike, the source gives them in different places.

Experiments:
Format in all cases: cell-based
[1] = test system: E. cloacae
[2] = test system: A. calcoaceticus
[3] = test system: S. epidermidis
[4] = test system: E. coli
[5] = test system: S. aureus
[6] = test system: K. pneumoniae
[7] = test system: S. marcescens
[8] = test system: P. aeruginosa
[9] = test system: E. faecalis
[10] = test system: S. maltophilia

Sequence: ILRNPNNPNRRK [MBI 11B7ACN]
- MIC ([1]; E. cloacae strain ECL007): >128 µg/mL
- MIC ([2]; A. calcoaceticus strain AC002, listed as MBI 11B7 ACN): 2 µg/mL
- MIC ([3]; S. epidermidis strain SE010): 4 µg/mL
- MIC ([4]; E. coli strain ECO005, listed as MBI 11B7 ACN): 8 µg/mL
- MIC ([5]; S. aureus strain SA014): 2 µg/mL
- MIC ([5]; S. aureus strain SA093): 1 µg/mL
- MIC ([6]; K. pneumoniae strain KP001, listed as MBI 11B7 ACN): 8 µg/mL
- MIC ([7]; S. marcescens strain SMS003): >128 µg/mL
- MIC ([8]; P. aeruginosa strain PA004, listed as MBI 11B7 ACN): 128 µg/mL
- MIC ([9]; E. faecalis strain EFS001, listed as MBI 11B7 ACN): 1 µg/mL
- MIC ([9]; E. faecalis strain EFS008): 8 µg/mL
- MIC ([10]; S. maltophilia strain SMA002, listed as MBI 11B7 ACN): 32 µg/mL

Sequence: ILRRNPNNPNRRK [MBI 11B1CNW1]
- MIC ([1]; E. cloacae strain ECL007): 64 µg/mL
- MIC ([2]; A. calcoaceticus strain AC002): 16 µg/mL
- MIC ([3]; S. epidermidis strain SE010): 8 µg/mL
- MIC ([4]; E. coli strain ECO005): 32 µg/mL
- MIC ([5]; S. aureus strain SA014): 16 µg/mL
- MIC ([6]; K. pneumoniae strain KP001): 32 µg/mL
- MIC ([7]; S. marcescens strain SMS003): >128 µg/mL
- MIC ([8]; P. aeruginosa strain PA004): 64 µg/mL
- MIC ([9]; E. faecalis strain EFS004): 8 µg/mL
- MIC ([10]; S. maltophilia strain SMA002): 32 µg/mL

Sequence: ILRRWVWWVWRRK [MBI 11F5CN]
- MIC ([1]; E. cloacae ECL007): 128 µg/mL
- MIC ([2]; A. calcoaceticus AC002): 4 µg/mL
- MIC ([3]; S. epidermidis SE010): 4 µg/mL
- MIC ([4]; E. coli ECO005): 8 µg/mL
- MIC ([5]; S. aureus SA014): 4 µg/mL
- MIC ([5]; S. aureus SA093): 2 µg/mL
- MIC ([6]; K. pneumoniae KP001): 8 µg/mL
- MIC ([7]; S. marcescens SMS003): >128 µg/mL
- MIC ([8]; P. aeruginosa PA004): 32 µg/mL
- MIC ([9]; E. faecalis EFS001): 2 µg/mL
- MIC ([9]; E. faecalis EFS008): 8 µg/mL
- MIC ([10]; S. maltophilia SMA002): 16 µg/mL

Sequence: ILRWAWWPWRRK [MBI 11H05CN]
- MIC ([1]; E. cloacae ECL007): >128 µg/mL
- MIC ([2]; A. calcoaceticus AC002): 4 µg/mL
- MIC ([3]; S. epidermidis SE010): 4 µg/mL
- MIC ([4]; E. coli ECO005): 8 µg/mL
- MIC ([5]; S. aureus SA014): 2 µg/mL
- MIC ([5]; S. aureus SA093): 1 µg/mL
- MIC ([6]; K. pneumoniae KP001): 8 µg/mL
- MIC ([7]; S. marcescens SMS003): >128 µg/mL
- MIC ([8]; P. aeruginosa PA004): 128 µg/mL
- MIC ([9]; E. faecalis EFS001): 2 µg/mL
- MIC ([9]; E. faecalis EFS008): 8 µg/mL
- MIC ([10]; S. maltophilia SMA002): 16 µg/mL

Sequence: ILRWPAWPWRRK [MBI 11H06CN]
- MIC ([1]; E. cloacae ECL007): >128 µg/mL
- MIC ([2]; A. calcoaceticus AC002): 8 µg/mL
- MIC ([3]; S. epidermidis SE010): 8 µg/mL
- MIC ([4]; E. coli ECO005): 16 µg/mL
- MIC ([5]; S. aureus SA014): 8 µg/mL
- MIC ([5]; S. aureus SA093): 1 µg/mL
- MIC ([6]; K. pneumoniae KP001): 64 µg/mL
- MIC ([7]; S. marcescens SMS003): >128 µg/mL
- MIC ([8]; P. aeruginosa PA004): >128 µg/mL
- MIC ([9]; E. faecalis EFS001): 2 µg/mL
- MIC ([9]; E. faecalis EFS008): 16 µg/mL
- MIC ([10]; S. maltophilia SMA002): 64 µg/mL

Sequence: ILRWPWAPWRRK [MBI 11H07CN]
- MIC ([1]; E. cloacae ECL007): >128 µg/mL
- MIC ([2]; A. calcoaceticus AC002): 8 µg/mL
- MIC ([3]; S. epidermidis SE010): 16 µg/mL
- MIC ([4]; E. coli ECO005): 32 µg/mL
- MIC ([5]; S. aureus SA014): 8 µg/mL
- MIC ([5]; S. aureus SA093): 2 µg/mL
- MIC ([6]; K. pneumoniae KP001): 128 µg/mL
- MIC ([7]; S. marcescens SMS003): >128 µg/mL
- MIC ([8]; P. aeruginosa PA004): >128 µg/mL
- MIC ([9]; E. faecalis EFS001): 4 µg/mL
- MIC ([9]; E. faecalis EFS008): 16 µg/mL
- MIC ([10]; S. maltophilia SMA002): 128 µg/mL

Sequence: ILRWPWRRWPWRRK [MBI 11B19CN]
- MIC ([1]; E. cloacae ECL007): >128 µg/mL
- MIC ([2]; A. calcoaceticus AC002): 4 µg/mL
- MIC ([3]; S. epidermidis SE010): 4 µg/mL
- MIC ([4]; E. coli ECO005): 8 µg/mL
- MIC ([5]; S. aureus SA014): 4 µg/mL
- MIC ([5]; S. aureus SA093): 2 µg/mL
- MIC ([6]; K. pneumoniae KP001): 64 µg/mL
- MIC ([7]; S. marcescens SMS003): >128 µg/mL
- MIC ([8]; P. aeruginosa PA004): 128 µg/mL
- MIC ([9]; E. faecalis EFS001): 2 µg/mL
- MIC ([9]; E. faecalis EFS008): 32 µg/mL
- MIC ([10]; S. maltophilia SMA002): 32 µg/mL

Sequence: ILRWPWWAWRRK [MBI 11H08CN]
- MIC ([1]; E. cloacae ECL007): >128 µg/mL
- MIC ([2]; A. calcoaceticus AC002): 4 µg/mL
- MIC ([3]; S. epidermidis SE010): 4 µg/mL
- MIC ([4]; E. coli ECO005): 8 µg/mL
- MIC ([5]; S. aureus SA014): 4 µg/mL
- MIC ([5]; S. aureus SA093): 1 µg/mL
- MIC ([6]; K. pneumoniae KP001): 32 µg/mL
- MIC ([7]; S. marcescens SMS003): >128 µg/mL
- MIC ([8]; P. aeruginosa PA004): >128 µg/mL
- MIC ([9]; E. faecalis EFS001): 2 µg/mL
- MIC ([9]; E. faecalis EFS008): 8 µg/mL
- MIC ([10]; S. maltophilia SMA002): 32 µg/mL

Sequence: ILRWPWWPARRK [MBI 11H09CN]
- MIC ([1]; E. cloacae ECL007): >128 µg/mL
- MIC ([2]; A. calcoaceticus AC002): 4 µg/mL
- MIC ([3]; S. epidermidis SE010): 16 µg/mL
- MIC ([4]; E. coli ECO005): 32 µg/mL
- MIC ([5]; S. aureus SA014): 8 µg/mL
- MIC ([5]; S. aureus SA093): 2 µg/mL
- MIC ([6]; K. pneumoniae KP001): 64 µg/mL
- MIC ([7]; S. marcescens SMS003): >128 µg/mL
- MIC ([8]; P. aeruginosa PA004): >128 µg/mL
- MIC ([9]; E. faecalis EFS001): 4 µg/mL
- MIC ([9]; E. faecalis EFS008): 64 µg/mL
- MIC ([10]; S. maltophilia SMA002): 64 µg/mL

Sequence: ILRWPWWPWARK [MBI 11H10CN]
- MIC ([1]; E. cloacae ECL007): >128 µg/mL
- MIC ([2]; A. calcoaceticus AC002): 4 µg/mL
- MIC ([3]; S. epidermidis SE010): 4 µg/mL
- MIC ([4]; E. coli ECO005): 16 µg/mL
- MIC ([5]; S. aureus SA014): 4 µg/mL
- MIC ([5]; S. aureus SA093): 1 µg/mL
- MIC ([6]; K. pneumoniae KP001): 16 µg/mL
- MIC ([7]; S. marcescens SMS003): >128 µg/mL
- MIC ([8]; P. aeruginosa PA004): >128 µg/mL
- MIC ([9]; E. faecalis EFS001): 2 µg/mL
- MIC ([9]; E. faecalis EFS008): 8 µg/mL
- MIC ([10]; S. maltophilia SMA002): 64 µg/mL
